These results are taken from ChEMBL document CHEMBL1148872, “Bradykinin B1 antagonists: biphenyl SAR studies in the cyclopropanecarboxamide series” (Bioorg Med Chem Lett, 2007).

pKi: −log10 of the molar value.

The target of one series is T1, B1 bradykinin receptor (Homo sapiens, UniProt P46663).
T1 sequence (P46663 whole entry): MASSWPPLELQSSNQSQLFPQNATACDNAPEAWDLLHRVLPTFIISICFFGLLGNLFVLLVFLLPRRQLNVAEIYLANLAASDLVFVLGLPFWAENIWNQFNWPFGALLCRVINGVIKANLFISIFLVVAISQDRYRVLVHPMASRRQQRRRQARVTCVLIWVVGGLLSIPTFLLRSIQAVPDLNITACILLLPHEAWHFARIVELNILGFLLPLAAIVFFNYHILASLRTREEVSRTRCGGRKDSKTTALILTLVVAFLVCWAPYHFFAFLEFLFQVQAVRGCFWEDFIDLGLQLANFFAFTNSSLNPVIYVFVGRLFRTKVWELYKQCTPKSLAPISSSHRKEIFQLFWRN
As to the kind of experiment: Binding affinity to human BK1 receptor.

A short description of series [1]: Half life in Sprague-Dawley rat at 10 mg/kg, po or 2 mg/kg, iv. As to conditions: in vivo.
Series [2] in a line: Half life in mongrel dog at 3 mg/kg, po or 1 mg/kg, iv. As to conditions: in vivo.
The nature of series [3]: Ratio of drug level in brain to plasma in african green monkey at 2 mg/kg, iv after 30 mins. As to conditions: chlorocebus aethiops.
Series [4] in a line: Half life in rhesus monkey at 3 mg/kg, po or 1 mg/kg, iv. As to conditions: in vivo.
Series [5] can be described thus: Partition coefficient, log P of the compound. As to conditions: octanol/water.
Series [6] concerns the target T2, B1 bradykinin receptor (Homo sapiens) (UniProt P46663).
T2 sequence (whole entry): T1 sequence (P46663 whole entry)
As to the kind of experiment: Receptor occupancy efficiency at human BK1 receptor in ex vivo transgenic receptor mouse occupancy model. Format: functional.

The nature of series [7]: Apparent permeability of the compound. As to conditions: not told.
The nature of series [8]: Clearance in Sprague-Dawley rat at 10 mg/kg, po or 2 mg/kg, iv. As to conditions: in vivo.
Series [9] in a line: in vivo. As to conditions: Sprague-Dawley, rat, po, 10 mg/kg.
Description: Oral bioavailability in Sprague-Dawley rat at 10 mg/kg, po
Series [10] in a line: in vivo. As to conditions: rhesus monkey, po, 3 mg/kg.
Series [11] is described as follows: in vivo. As to conditions: mongrel, dog, po, 3 mg/kg.

As usually defined, the pKi is the negative decadic logarithm of the Ki, by convention in mol/L. Regarding `C[C@@H](NC(=O)C1(NC(=O)C(F)(F)F)CC1)c1ncc(-c2cc(Cl)cc(Cl)c2-c2nnn(C)n2)cc1F`, the pKi on B1 bradykinin receptor was 8.42.

What is called half-life is how long it takes for the measured level to halve. One may read the Kp as tissue or fluid exposure divided by exposure in the circulation. A word on the logP: it is a log measure of how a compound divides between an organic and an aqueous phase. As usually defined, the Papp is the rate of passage across a membrane or cell layer, normalised by area and donor concentration. What is called bioavailability is dose-corrected exposure relative to a reference, in per cent. On to `CCOC(=O)c1c(Cl)cccc1-c1cnc([C@@H](C)NC(=O)C2(NC(=O)C(F)(F)F)CC2)c(F)c1`, for which the pKi on B1 bradykinin receptor is 8.92. For the same compound, the half-life is 0.8 h in [1], 2.3 h in [2] and 1.1 h in series [4]. Besides, the Kp at 0.5 h in [3] (brain and plasma) stood at 0.7. For the same compound, in series [5], the logP worked out at 3.6. Besides, the Occ90 in series [6] was found to be 225 nM. In addition, in series [7], the Papp stood at 28 ×10⁻⁶ cm/s. In series [8], this compound showed a clearance of 6.8 mL/min/kg. The bioavailability in the series “in vivo [9]” stood at 52%; in the series “in vivo [10]”, 12%; in “in vivo [11]” it was 20%.

Compound `COC(=O)c1ccc(Cl)cc1-c1ccc([C@@H](C)NC(=O)C2(NC(=O)C(F)(F)F)CC2)c(F)c1` showed a pKi on B1 bradykinin receptor of 8.69.

On B1 bradykinin receptor, `COC(=O)c1c(Cl)cc(Cl)cc1-c1cnc([C@@H](C)NC(=O)C2(NC(=O)C(F)(F)F)CC2)c(F)c1` gave a pKi of 8.59. The half-life in [1] was 1.3 h; in series [2] it was 6.6 h; in series [4], 2.5 h. Moreover, in series [3] (brain and plasma), the Kp at 0.5 h was found to be 0.8. The same compound showed a logP in [5] of 3.3. In addition, the Occ90 in [6] turned out to be 210 nM. In series [7], the Papp was 29 ×10⁻⁶ cm/s. Further, in series [8], the clearance was determined as 16.6 mL/min/kg. In addition, the results for the bioavailability in the series “in vivo [9]”, in the series “in vivo [10]” and in “in vivo [11]” were 19%, 12% and 66%, respectively.

As for `COC(=O)c1c(F)cc(Cl)cc1-c1ccc([C@@H](C)NC(=O)C2(NC(=O)C(F)(F)F)CC2)c(F)c1`, at B1 bradykinin receptor, the pKi is 9.17. The compound also gave a half-life in [1] of 0.8 h. Further, in [7], the Papp came to 27 ×10⁻⁶ cm/s. In series [8], this compound yielded a clearance of 13 mL/min/kg. For the same compound, the bioavailability in the series “in vivo [9]” is 21%.

On B1 bradykinin receptor, `CCOC(=O)c1c(Cl)cc(Cl)cc1-c1ccc([C@@H](C)NC(=O)C2(NC(=O)C(F)(F)F)CC2)c(F)c1` showed a negative-log Ki (pKi) of 8.73.

Consider `COC(=O)c1c(Cl)cccc1-c1cnc([C@@H](C)NC(=O)C2(NC(=O)C(F)(F)F)CC2)c(F)c1`, for which, at B1 bradykinin receptor, the pKi was 9.11. The same compound yielded an Occ90 in series [6] of 350 nM.

Take `CCOC(=O)c1c(Cl)cc(Cl)cc1-c1cnc([C@@H](C)NC(=O)C2(NC(=O)C(F)(F)F)CC2)c(F)c1`: the pKi on B1 bradykinin receptor was 8.74.

For the compound `COC(=O)c1c(Cl)cccc1-c1ccc([C@@H](C)NC(=O)C2(NC(=O)C(F)(F)F)CC2)c(F)c1` [MK0686], the Kp at 0.5 h in [3] (brain and plasma) is 0.4. The compound also showed a logP in series [5] above 3.6. Moreover, the Occ90 in series [6] was found to be 520 nM.

At B1 bradykinin receptor, `Cc1nc(-c2ccc(Cl)cc2-c2ccc([C@@H](C)NC(=O)C3(NC(=O)C(F)(F)F)CC3)c(F)c2)no1` gave a pKi of 8.86.

Regarding `COC(=O)c1cc(Cl)ccc1-c1ccc([C@@H](C)NC(=O)C2(NC(=O)C(F)(F)F)CC2)c(F)c1`, on B1 bradykinin receptor, the pKi was 6.87.

The compound `C[C@@H](NC(=O)C1(NC(=O)C(F)(F)F)CC1)c1ccc(-c2cc(Cl)ccc2-c2nnn(C)n2)cc1F` had a pKi on B1 bradykinin receptor of 8.84.

For `C[C@@H](NC(=O)C1(NC(=O)C(F)(F)F)CC1)c1ccc(-c2cc(Cl)cc(F)c2-c2nnn(C)n2)cc1F`, the pKi at B1 bradykinin receptor was 8.96. The compound also gave a half-life in series [1] of 3.5 h. The Papp in [7] is 23 ×10⁻⁶ cm/s. In [8], this compound yielded a clearance of 2.3 mL/min/kg. In the series “in vivo [9]”, this compound gave a bioavailability of 64%.

`COC(=O)c1c(Cl)cc(Cl)cc1-c1ccc([C@@H](C)NC(=O)C2(NC(=O)C(F)(F)F)CC2)c(F)c1` had a pKi at B1 bradykinin receptor of 9.34. In addition, the half-life was 4.6 h in series [1] and 3.9 h in series [4]. In addition, the Kp at 0.5 h in series [3] (brain) came to 1.1. Further, in series [5], the logP is above 3.8. Further, in [6], the Occ90 was 450 nM. In series [7], the Papp is 18 ×10⁻⁶ cm/s. For the same compound, the bioavailability in “in vivo [9]” came out at 38%; in “in vivo [10]” it was 20%; in the series “in vivo [11]”, 19%.

`Cc1noc(-c2ccc(Cl)cc2-c2ccc([C@@H](C)NC(=O)C3(NC(=O)C(F)(F)F)CC3)c(F)c2)n1` showed a pKi on B1 bradykinin receptor of 8.12.

As to `Cc1nc(-c2c(Cl)cc(Cl)cc2-c2ccc([C@@H](C)NC(=O)C3(NC(=O)C(F)(F)F)CC3)c(F)c2)no1`, the pKi at B1 bradykinin receptor was 8.62. The half-life in series [1] was 5.6 h. For the same compound, in series [7], the Papp was 23 ×10⁻⁶ cm/s. In series [8], the clearance stood at 0.8 mL/min/kg. The compound also returned a bioavailability in “in vivo [9]” of 39%.

For `C[C@@H](NC(=O)C1(NC(=O)C(F)(F)F)CC1)c1ccc(-c2cc(Cl)cc(Cl)c2-c2nnn(C)n2)cc1F`, the pKi on B1 bradykinin receptor was 8.80. This compound also displayed an Occ90 in [6] of 540 nM.
